{
  "source": "patent US8552064B2",
  "about": "“Suramin and derivatives thereof as topical microbicide and contraceptive” (Eastern Virginia Medical School, priority 2005, dated 2013)",
  "key": {"sperm": {"system": "sperm", "experiment": "Sperm viability, membrane integrity (HOST)", "format": "cell-based", "protocol": "Viability of sperm was assessed by a sperm membrane integrity evaluation as described in Jeyendran R. S. et al., J. Reprod. Fertil., 70: 219-28 (1984). Aliquots of sperm samples were incubated with suramin or N-9 test compounds. The reaction was terminated by the addition of 1.5 mL Ham's F10. Sperm were centrifuged and the pellet was resuspended in 200 μL of medium. Sperm viability was assessed by placing 100 μL of the sperm suspension in 900 μL of hypo-osmotic swelling test (HOST) medium for 30 min. Coiled sperm tails are a reflection of intact sperm membrane permeability and indicate viable sperm. A minimum of 200 cells were microscopically assessed from each sample."}, "[1]": {"system": "human sperm binding to zona pellucida", "experiment": "Hemizona assay (HZA), human sperm-zona binding", "format": "cell-based", "protocol": "The hemizona assay, as described in Burkman L. J., et al., Fertil. Steril., 49: 688-697 (1988), was used to measure the ability of sperm to undergo capacitation and bind to the zona pellucida of an oocyte. Briefly, in this assay, motile normal sperm were separated in media with bovine serum albumin, which triggers capacitation. Human motile sperm were separated using a swim-up technique and incubated with 1 mM suramin or solvent-control medium for 15 minutes in 100 μL medium droplets covered with mineral oil, at 37° C., 5% CO2. Sperm were then incubated with dead oocytes which are surrounded by the zona pellucida, an acellular coating of oocytes. Bisected hemizonae corresponding to one oocyte were placed each in the test (suramin) and control (solvent) droplets and incubated for an additional 4 hours. Sperm-hemizonae complexes were washed extensively and capacitated spermatozoa bound to the outer surface of the zonae and were counted under an inverted microscope. The Hemizona Index (HZI) was calculated by dividing the number of suramin-treated sperm bound to one hemizona by the number of untreated (control) sperm bound to the other hemizona."}, "[2]": {"system": "human sperm, zona-free hamster eggs", "experiment": "Hamster-egg penetration test (HEPT)", "format": "cell-based", "protocol": "The hamster-egg penetration test (HEPT) was used to predict the fertilizing ability of human sperm by evaluating the sperm's ooctye-penetration capability as described in Yanagimachi R. et al., Biol. Reprod., 15: 471-6 (1976). The zona pellucida of hamster eggs was dissolved by treatment with a protease, and human sperm were subsequently added to the zona free eggs. Sperm binding and penetration were assessed under a standard microscope (60× magnification) after placing the sperm-egg complexes onto polylysine-coated glass slides and covered them with 22×22 mm glass coverslips. The ability of the sperm to bind and enter the egg was scored by counting the sperm nuclei lying within the egg cytoplasm. The effect of the test compound was determined by comparing the number of sperm bound to the surface of the eggs and the percentage of penetrated eggs."}, "HIV-1 IIIB": {"system": "HIV-1 IIIB", "experiment": "Virus binding inhibition assay VBIA-IIIB in MT-2 cells", "format": "cell-based", "protocol": "VBIAIIIB: MT-2 cells, compounds and virus (HIV-1 IIIB) were mixed together in 96-well plates and incubated for 2 h at 37° C. At the end of this incubation period, the 96-well plates were centrifuged for 10 minutes and approximately 175 μL of medium was removed using a multichannel pipettor and replaced with 175 μL of fresh media. […] Modulation of virus induced cytopathic effects was measured by determining percent reduction in optical density (O.D.) using an XTT (2,3-bis(2-methoxy-4-nitro-5-sulfophenyl)-5-[phenylamino)carbonyl]-2H-tetrazolium hydroxide) dye reduction assay. Virus-induced cytopathic effects and mechanical artifacts due to media removal were verified by microscopic observations (Anderson R. A., et al., J. Androl., 21: 862-875 (2000)). The results of this assay are provided herein."}, "HIV-1 Ba-L": {"system": "HIV-1 Ba-L", "experiment": "C-MAGI/Ba-L assay (viral entry inhibition, BaL)", "format": "cell-based", "settings": "for IC50: Human immunodeficiency virus 1, BAL", "protocol": "The C-MAGI/Ba-L assays were carried out with MAGI-CCR-5 cells. The cell line was maintained in DMEM medium containing 10% FBS, 100 U/ml penicillin, 300 μg/mL glutamate and selection antibiotics as indicated above. Before assay, the cells were placed in 96 well flat tissue culture plates at 1×10^4 cells per well, and incubated overnight in the absence of antibiotics. The next day, medium was removed, and virus and compound (100 μL virus (HIVBa-L)+100 μL compound) were added. The cultures were incubated for 2 hours to facilitate virus attachment. After this incubation, the medium is removed from the wells, replaced with fresh compound-free medium, washed twice and finally incubated at 37° C. for 2 days in fresh medium. Following incubation, the medium was removed and induction of β-galactosidase enzyme activity was detected by chemiluminescence. β-galactosidase activity was detected using a chemiluminescence substrate, following the manufacture's instructions (Tropix). The TC50 and IC50 are determined using linear regression and a therapeutic index or antiviral index calculated. The results of this assay are provided herein."}, "HSV-2": {"system": "HSV-2", "experiment": "HSV plaque assay, HSV-2", "format": "cell-based, HSV (type 2 strain 333)", "protocol": "Evaluation of anti-HSV activity of suramin was based on the method described by Herold et al., J. Virol., 70: 3461-3469 (1996). The compound was serially diluted (1000 μg/ml to 1.0 μg/ml) in phosphate-buffered saline (PBS), and each dilution was mixed with each of two serial dilutions (10^−5 and 10^−6) HSV (type 2 strain 333). Working viral titers were […]. Samples (1 ml) of each mixture were plated in duplicate on washed and drained confluent monolayers of CaSki cells (a human cervical epithelial cell line, obtained from the American Type Culture Collection, Rockville, Md.) on the bottoms of 25 cm^2 flasks. Initial titer (indicated in the control cultures with no added test agent) in each culture was given as pfu/ml. The flasks were incubated for 2 hours, after which the medium (containing virus and test compound) was removed and the cells were washed with PBS. Cells were cultured for 3 days in medium 199, supplemented with 1% serum and 0.5% methyl cellulose that contained anti-HSV antibodies to prevent the formation of secondary plaques. Cells were stained with Giemsa for the counting of viral plaques by phase contrast microscopy. The viral titer was inferred from the number of plaques, after correction for dilutions. Values were corrected to a control titer 5×10^8 pfu/ml. Data were expressed as viral titer and as the percentage of plaques that are counted in control cell cultures (not exposed to test agent). […] The concentration of the compound that was required to reduce the viral titer by 50% (IC50) was estimated with curve-fitting software (TableCurve 2D, version 3.02) from plots of plaque-forming units (pfu) per ml as a function of concentration of the compound."}, "CaSki cells": {"system": "CaSki cells", "experiment": "Cytotoxicity in the anti-herpes study", "format": "cell-based, human", "settings": "highest concentration tested (1000 μg/mL)"}},
  "note": "Where two headings read alike, the source gives them in different places.",
  "data": [
    {"molecule": "Cc1ccc(C(=O)Nc2ccc(S(=O)(=O)O)c3cc(S(=O)(=O)O)cc(S(=O)(=O)O)c23)cc1NC(=O)c1cccc(NC(=O)Nc2cccc(C(=O)Nc3cc(C(=O)Nc4ccc(S(=O)(=O)O)c5cc(S(=O)(=O)O)cc(S(=O)(=O)O)c45)ccc3C)c2)c1", "note": "[Suramin, 8,8′-(carbonylbis(imino-3,1-phenylenecarbonylimino(4-methyl-3,1-phenylene)carbonylimino))bis-1,3,5-naphthalene trisulfonic acid]", "values": [
      {"measurement": "sperm viability vs solvent-treated controls", "setting": "sperm; 10-0.001 mg/mL", "value": "No significant differences"},
      {"measurement": "Potency, Viability (HOST)", "setting": "sperm; time- and dose-dependent exp.", "value": "None"},
      {"measurement": "Potency, ZP binding (HZA)", "setting": "[1]", "value": "High"},
      {"measurement": "Hemizona Index (HZI)", "setting": "[1]; 1 mM, n=9", "value": "0.08±0.01"},
      {"measurement": "inhibition at 1000 µM", "setting": "[1]; Homo sapiens, Sperm, 1 mM", "value": 92, "unit": "%"},
      {"measurement": "Potency, Oolemma binding/Penetration (HEPT)", "setting": "[2]", "value": "High"},
      {"measurement": "inhibition of penetration", "setting": "[2]", "value": 100, "unit": "%"},
      {"measurement": "inhibition of sperm binding to hamster zona-free oocytes", "setting": "[2]", "value": 75, "unit": "%"},
      {"measurement": "sperm penetration/fertilization of zona-free eggs", "setting": "[2]; n=28 oocytes", "value": "completely abolished sperm penetration/fertilization"},
      {"measurement": "Potency, HIV-1 VBIA-IIIb", "setting": "HIV-1 IIIB", "value": "High"},
      {"measurement": "IC50", "setting": "HIV-1 IIIB; Human immunodeficiency virus 1, IIIB, MT2, 72 hours incubation, read-out: IC50 against IIIB, viral entry assay", "value": 7.3, "unit": "µg/mL"},
      {"measurement": "Potency, HIV-1 MAGI-Bal", "setting": "HIV-1 Ba-L", "value": "High"},
      {"measurement": "IC50", "setting": "HIV-1 Ba-L; HeLa, 2 h, read-out: IC50, Cell-Free Strains BaL, CD4/coreceptor expressing HeLa cells, incubation 2 hours", "value": 5.5, "unit": "µg/mL"},
      {"measurement": "IC50", "setting": "HIV-1 Ba-L; 2h-incubation, read-out: IC50 against Bal", "value": 0.39, "unit": "µg/mL"},
      {"measurement": "Potency, HSV-2 Plaque", "setting": "HSV-2", "value": "High"},
      {"measurement": "inhibition at 100 µg/mL", "setting": "HSV-2; Human alphaherpesvirus 2, 100 μg/mL, read-out: inhibition of viral infectivity, plaque assay", "value": 100, "unit": "%"},
      {"measurement": "IC50", "setting": "HSV-2; Human alphaherpesvirus 2, read-out: IC50 against HSV-2", "value": 1, "unit": "µg/mL"},
      {"measurement": "cytotoxicity", "setting": "CaSki cells", "value": "not being significantly cytotoxic"}
    ]}
  ]
}
